{
  "source": "ChEMBL document CHEMBL2074246",
  "about": "“Distinct groups of multidrug resistance modulating agents are distinguished by competition of P-glycoprotein-specific antibodies” (Biochem Biophys Res Commun, 2004)",
  "assay_type_in_all_cases": "functional, cell-based",
  "key": {"[1]": {"target": "T1, ATP-dependent translocase ABCB1 (Homo sapiens, UniProt P08183)", "T1 sequence (P08183 whole entry)": "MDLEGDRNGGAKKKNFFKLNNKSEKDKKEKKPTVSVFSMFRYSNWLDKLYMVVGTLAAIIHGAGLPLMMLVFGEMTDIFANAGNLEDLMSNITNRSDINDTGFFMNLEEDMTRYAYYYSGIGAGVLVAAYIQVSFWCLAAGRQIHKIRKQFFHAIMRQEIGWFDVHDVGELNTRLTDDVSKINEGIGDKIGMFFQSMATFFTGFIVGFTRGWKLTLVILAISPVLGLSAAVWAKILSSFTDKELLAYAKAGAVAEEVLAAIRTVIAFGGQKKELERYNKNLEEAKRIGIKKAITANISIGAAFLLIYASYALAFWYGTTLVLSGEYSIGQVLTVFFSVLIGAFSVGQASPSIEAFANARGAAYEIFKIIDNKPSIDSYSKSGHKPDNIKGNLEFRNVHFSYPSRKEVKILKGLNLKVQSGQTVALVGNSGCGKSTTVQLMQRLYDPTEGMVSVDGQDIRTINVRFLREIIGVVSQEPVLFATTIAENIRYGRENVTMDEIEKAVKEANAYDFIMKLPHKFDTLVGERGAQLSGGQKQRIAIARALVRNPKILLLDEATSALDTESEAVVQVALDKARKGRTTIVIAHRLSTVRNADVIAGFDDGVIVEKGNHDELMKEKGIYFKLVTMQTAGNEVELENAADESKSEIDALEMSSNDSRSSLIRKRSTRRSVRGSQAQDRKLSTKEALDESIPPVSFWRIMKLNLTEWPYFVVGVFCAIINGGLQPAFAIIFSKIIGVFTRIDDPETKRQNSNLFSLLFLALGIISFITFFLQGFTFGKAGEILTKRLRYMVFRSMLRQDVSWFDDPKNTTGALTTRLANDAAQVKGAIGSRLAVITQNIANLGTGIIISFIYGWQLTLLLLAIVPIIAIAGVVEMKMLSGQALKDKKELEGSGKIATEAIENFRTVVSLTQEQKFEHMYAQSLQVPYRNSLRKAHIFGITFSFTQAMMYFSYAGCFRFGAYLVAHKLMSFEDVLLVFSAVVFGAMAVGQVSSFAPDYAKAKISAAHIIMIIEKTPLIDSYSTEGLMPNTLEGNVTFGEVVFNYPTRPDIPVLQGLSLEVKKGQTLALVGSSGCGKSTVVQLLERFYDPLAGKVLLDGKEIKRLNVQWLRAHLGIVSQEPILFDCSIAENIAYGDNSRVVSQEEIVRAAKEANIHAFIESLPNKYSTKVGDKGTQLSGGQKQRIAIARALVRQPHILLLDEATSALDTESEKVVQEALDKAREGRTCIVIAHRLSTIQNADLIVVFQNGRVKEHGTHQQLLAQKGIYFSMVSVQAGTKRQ", "experiment": "TP_TRANSPORTER: increase in Calcein-AM intracellular accumulation (Calcein-AM: 0.5 uM, Prazosin: 10 uM) in MDR1-expressing NIH-3T3 cells", "conditions": "mouse, nih3t3, 10 µM"}, "[2]": {"target": "T1, ATP-dependent translocase ABCB1", "experiment": "TP_TRANSPORTER: increase in Calcein-AM intracellular accumulation (Calcein-AM: 0.5 uM, Taxol: 20 uM) in MDR1-expressing NIH-3T3 cells", "conditions": "mouse, nih3t3, 20 µM"}, "[3]": {"target": "T1, ATP-dependent translocase ABCB1", "experiment": "TP_TRANSPORTER: increase in Calcein-AM intracellular accumulation (Calcein-AM: 0.5 uM, Gramicidin D: 10 uM) in MDR1-expressing NIH-3T3 cells", "conditions": "mouse, nih3t3, 10 µM"}, "[4]": {"target": "T1, ATP-dependent translocase ABCB1", "experiment": "TP_TRANSPORTER: increase in Calcein-AM intracellular accumulation (Calcein-AM: 0.5 uM, Lidocaine: 20 uM) in MDR1-expressing NIH-3T3 cells", "conditions": "mouse, nih3t3, 20 µM"}, "[5]": {"target": "T1, ATP-dependent translocase ABCB1", "experiment": "TP_TRANSPORTER: increase in Calcein-AM intracellular accumulation (Calcein-AM: 0.5 uM, Colchicine: 100 uM) in MDR1-expressing NIH-3T3 cells", "conditions": "mouse, nih3t3, 100 µM"}, "[6]": {"target": "T1, ATP-dependent translocase ABCB1", "experiment": "TP_TRANSPORTER: increase in Calcein-AM intracellular accumulation (Calcein-AM: 0.5 uM, Oligomycin: 5 uM) in MDR1-expressing NIH-3T3 cells", "conditions": "mouse, nih3t3, 5 µM"}, "[7]": {"target": "T1, ATP-dependent translocase ABCB1", "experiment": "TP_TRANSPORTER: increase in Calcein-AM intracellular accumulation (Calcein-AM: 0.5 uM, Puromycin: 20 uM) in MDR1-expressing NIH-3T3 cells", "conditions": "mouse, nih3t3, 20 µM"}, "[8]": {"target": "T1, ATP-dependent translocase ABCB1", "experiment": "TP_TRANSPORTER: increase in Calcein-AM intracellular accumulation (Calcein-AM: 0.5 uM, Hoechst 33342: 50 uM) in MDR1-expressing NIH-3T3 cells", "conditions": "mouse, nih3t3, 50 µM"}, "[9]": {"target": "T1, ATP-dependent translocase ABCB1", "experiment": "TP_TRANSPORTER: increase in Calcein-AM intracellular accumulation (Calcein-AM: 0.5 uM, Vincristine: 200 uM) in MDR1-expressing NIH-3T3 cells", "conditions": "mouse, nih3t3, 200 µM"}, "[10]": {"target": "T1, ATP-dependent translocase ABCB1", "experiment": "TP_TRANSPORTER: increase in Calcein-AM intracellular accumulation (Calcein-AM: 0.5 uM, Mitomycin C: 20 uM) in MDR1-expressing NIH-3T3 cells", "conditions": "mouse, nih3t3, 20 µM"}, "[11]": {"target": "T1, ATP-dependent translocase ABCB1", "experiment": "TP_TRANSPORTER: increase in Calcein-AM intracellular accumulation (Calcein-AM: 0.5 uM, Tween 20: 1.4x10-3a%) in MDR1-expressing NIH-3T3 cells", "conditions": "mouse, nih3t3"}, "[12]": {"target": "T1, ATP-dependent translocase ABCB1", "experiment": "TP_TRANSPORTER: increase in Calcein-AM intracellular accumulation (Calcein-AM: 0.5 uM, Vinblastine: 70 uM) in MDR1-expressing NIH-3T3 cells", "conditions": "mouse, nih3t3, 70 µM"}, "[13]": {"target": "T1, ATP-dependent translocase ABCB1", "experiment": "TP_TRANSPORTER: increase in Calcein-AM intracellular accumulation (Calcein-AM: 0.5 uM, Valinomycin: 10 uM) in MDR1-expressing NIH-3T3 cells", "conditions": "mouse, nih3t3, 10 µM"}},
  "note": "Where a SMILES comes first, the peptide text is derived from it. [ ]: non-standard residue; d: D form. The star is where a group is joined. NHCH2CH2OH = OCCN*; For = O=C*",
  "data": [
    {"smiles": "COc1cc2nc(N3CCN(C(=O)c4ccco4)CC3)nc(N)c2cc1OC", "note": "[PRAZOSIN]", "values": [
      {"measurement": "Activity", "setting": "[1]", "result": "is not an inhibitor [-]"}
    ]},
    {"smiles": "CC(=O)O[C@H]1C(=O)[C@@]2(C)[C@H]([C@H](OC(=O)c3ccccc3)[C@]3(O)C[C@H](OC(=O)[C@H](O)[C@@H](NC(=O)c4ccccc4)c4ccccc4)C(C)=C1C3(C)C)[C@]1(OC(C)=O)CO[C@@H]1C[C@@H]2O", "note": "[PACLITAXEL]", "values": [
      {"measurement": "Activity", "setting": "[2]", "result": "is not an inhibitor [-]"}
    ]},
    {"smiles": "CC(C)C[C@@H](NC(=O)[C@H](C)NC(=O)CNC(=O)[C@@H](NC=O)C(C)C)C(=O)N[C@@H](C)C(=O)N[C@@H](C(=O)N[C@H](C(=O)N[C@@H](C(=O)N[C@@H](Cc1c[nH]c2ccccc12)C(=O)N[C@H](CC(C)C)C(=O)N[C@@H](Cc1c[nH]c2ccccc12)C(=O)N[C@H](CC(C)C)C(=O)N[C@@H](Cc1c[nH]c2ccccc12)C(=O)N[C@H](CC(C)C)C(=O)N[C@@H](Cc1c[nH]c2ccccc12)C(=O)NCCO)C(C)C)C(C)C)C(C)C", "note": "[GRAMICIDIN D] (For-VGA[dL]A[dV]V[dV]W[dL]W[dL]W[dL]W-NHCH2CH2OH)", "values": [
      {"measurement": "Activity", "setting": "[3]", "result": "is not an inhibitor [-]"}
    ]},
    {"smiles": "CCN(CC)CC(=O)Nc1c(C)cccc1C", "note": "[LIDOCAINE]", "values": [
      {"measurement": "Activity", "setting": "[4]", "result": "is not an inhibitor [-]"}
    ]},
    {"smiles": "COc1cc2c(c(OC)c1OC)-c1ccc(OC)c(=O)cc1[C@@H](NC(C)=O)CC2", "note": "[COLCHICINE]", "values": [
      {"measurement": "Activity", "setting": "[5]", "result": "is not an inhibitor [-]"}
    ]},
    {"smiles": "CC[C@H]1/C=C/C=C/C[C@@H](C)[C@H](O)[C@@](C)(O)C(=O)[C@@H](C)[C@H](O)[C@@H](C)C(=O)[C@@H](C)[C@H](O)[C@@H](C)/C=C/C(=O)O[C@@H]2[C@H](C)[C@H](CC1)O[C@]1(CC[C@H](C)[C@H](C[C@@H](C)O)O1)[C@H]2C", "note": "[OLIGOMYCIN]", "values": [
      {"measurement": "Activity", "setting": "[6]", "result": "is not an inhibitor [-]"}
    ]},
    {"smiles": "COc1ccc(C[C@H](N)C(=O)N[C@H]2[C@@H](O)[C@H](n3cnc4c(N(C)C)ncnc43)O[C@@H]2CO)cc1", "note": "[PUROMYCIN]", "values": [
      {"measurement": "Activity", "setting": "[7]", "result": "is not an inhibitor [-]"}
    ]},
    {"smiles": "CCOc1ccc(-c2nc3cc(-c4nc5cc(N6CCN(C)CC6)ccc5[nH]4)ccc3[nH]2)cc1", "values": [
      {"measurement": "Activity", "setting": "[8]", "result": "is not an inhibitor [-]"}
    ]},
    {"smiles": "CC[C@]1(O)C[C@H]2CN(CCc3c([nH]c4ccccc34)[C@@](C(=O)OC)(c3cc4c(cc3OC)N(C=O)[C@H]3[C@@](O)(C(=O)OC)[C@H](OC(C)=O)[C@]5(CC)C=CCN6CC[C@]43[C@@H]65)C2)C1", "note": "[VINCRISTINE]", "values": [
      {"measurement": "Activity", "setting": "[9]", "result": "is not an inhibitor [-]"}
    ]},
    {"smiles": "CO[C@@]12[C@H](COC(N)=O)C3=C(C(=O)C(C)=C(N)C3=O)N1C[C@@H]1N[C@@H]12", "note": "[MITOMYCIN]", "values": [
      {"measurement": "Activity", "setting": "[10]", "result": "is not an inhibitor [-]"}
    ]},
    {"smiles": "CCCCCCCCCCCC(=O)OCCOCCOCCOCCOCCOCCOCCOCCOCCOCCOCCOCCOCCOCCOCCOCCOCCOCCOCCOCCOCC(OCCOCCOCCOCCOCCOCCOCCOCCOCCOCCOCCOCCOCCOCCOCCOCCOCCOCCOCCOCCO)C1OCC(OCCOCCOCCOCCOCCOCCOCCOCCOCCOCCOCCOCCOCCOCCOCCOCCOCCOCCOCCOCCO)C1OCCOCCOCCOCCOCCOCCOCCOCCOCCOCCOCCOCCOCCOCCOCCOCCOCCOCCOCCOCCO", "note": "(stereo not drawn) [TWEEN 20]", "values": [
      {"measurement": "Activity", "setting": "[11]", "result": "inhibitor [+]"}
    ]},
    {"smiles": "CC[C@]1(O)C[C@@H]2CN(CCc3c([nH]c4ccccc34)[C@@](C(=O)OC)(c3cc4c(cc3OC)N(C)[C@H]3[C@@](O)(C(=O)OC)[C@H](OC(C)=O)[C@]5(CC)C=CCN6CC[C@]43[C@@H]65)C2)C1", "note": "[VINBLASTINE]", "values": [
      {"measurement": "Activity", "setting": "[12]", "result": "inhibitor [+]"}
    ]},
    {"smiles": "CC(C)[C@@H]1NC(=O)[C@H](C)OC(=O)[C@@H](C(C)C)NC(=O)[C@@H](C(C)C)OC(=O)[C@H](C(C)C)NC(=O)[C@H](C)OC(=O)[C@@H](C(C)C)NC(=O)[C@@H](C(C)C)OC(=O)[C@H](C(C)C)NC(=O)[C@H](C)OC(=O)[C@@H](C(C)C)NC(=O)[C@@H](C(C)C)OC1=O", "note": "[VALINOMYCIN]", "values": [
      {"measurement": "Activity", "setting": "[13]", "result": "inhibitor [+]"}
    ]}
  ]
}
